Patent publication US8883796B2, “Biphenyl derivatives, pharmaceutical composition comprising the same, and preparation method thereof” (Korea Institute of Science and Technology, priority 2013, dated 2014)

Target: T1, Human recombinant 5-HT7 receptor (Homo sapiens, UniProt P34969)
T1 construct: expressed in transfected cells; host or cells: CHO cells (membrane preparation)
Experiment: Binding affinity for 5-HT7 serotonin receptor ([3H]LSD radioligand binding)
Conditions: 1 nM [3H]LSD, human recombinant 5-HT7 receptor expressed in CHO cells; for Ki: 25° C., 90 minutes; for inhibition at 10 µM: 10 μM test compound
Method: % inhibition at 10 μM and binding affinity (Ki) of the novel compound represented by the Chemical Formula 1 according to the present disclosure for the 5-HT7 serotonin receptor were measured as follows.
Human recombinant 5-HT7 receptor expressed in CHO cells was used. A reaction mixture (final concentration 0.25 mL) prepared from 1 nM [^3H]LSD, 5-HT7 receptor membrane (15 μg/well), test compound of various concentrations and 50 mM Tris-HCl buffer (pH 7.4) containing 10 mM MgCl2 and 0.1 mM EDTA was incubated at 25° C. for 90 minutes. After the incubation, reaction was terminated by rapid filtration through Whatman GF/C glass fiber filter previously soaked in 0.3% polyethyleneimine using a Brandel harvester and washed with cold 50 mM Tris-HCl buffer. The filter was covered with MeltiLex, sealed in a sample bag and dried in an oven. Counting was carried out using MicroBeta (Wallac). Nonspecific binding was measured in the presence of 0.5 μM mianserin. The Ki value of the test compound was obtained from nonlinear regression analysis (GraphPad Prism Program, San Diego, USA) of isotherms obtained by repeating experiments 3 times in duplicate test tubes at 10-11 varied concentrations.
The % inhibition at 10 μM and binding affinity (Ki) of the novel compound according to the present disclosure for the 5-HT7 serotonin receptor are given in Table 1.

T1 sequence (P34969 whole entry): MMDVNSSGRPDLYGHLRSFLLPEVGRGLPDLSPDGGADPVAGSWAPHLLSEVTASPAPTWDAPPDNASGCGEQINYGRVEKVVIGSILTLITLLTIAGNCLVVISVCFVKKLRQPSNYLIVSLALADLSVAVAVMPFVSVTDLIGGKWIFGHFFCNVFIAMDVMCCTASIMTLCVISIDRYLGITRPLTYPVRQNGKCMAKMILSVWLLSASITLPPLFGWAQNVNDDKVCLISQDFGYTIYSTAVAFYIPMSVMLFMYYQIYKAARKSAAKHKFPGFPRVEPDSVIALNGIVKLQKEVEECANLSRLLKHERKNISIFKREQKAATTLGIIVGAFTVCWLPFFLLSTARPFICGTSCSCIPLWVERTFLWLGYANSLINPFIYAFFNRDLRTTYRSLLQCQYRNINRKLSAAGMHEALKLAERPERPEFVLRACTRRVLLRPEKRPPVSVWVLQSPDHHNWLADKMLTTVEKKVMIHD

SMILES: c1ccc(-c2ccccc2CN2CCN(c3ccccc3)CC2)cc1 [Compound 1, 1-(biphenyl-2-ylmethyl)-4-phenylpiperazine]
- Ki: 537 nM
- inhibition at 10 µM: 59.7%

SMILES: COc1ccccc1N1CCN(Cc2ccccc2-c2ccccc2)CC1 [Compound 8, 1-(biphenyl-2-ylmethyl)-4-(2-methoxyphenyl)piperazine]
- Ki: 432 nM
- inhibition at 10 µM: 95.1%

SMILES: CCOc1ccccc1N1CCN(Cc2ccccc2-c2ccccc2)CC1 [Compound 9, 1-(biphenyl-2-ylmethyl)-4-(2-ethoxyphenyl)piperazine]
- Ki: 192 nM
- inhibition at 10 µM: 86.2%

SMILES: Cc1ccc(C)c(N2CCN(Cc3ccccc3-c3ccccc3)CC2)c1 [Compound 21, 1-(biphenyl-2-ylmethyl)-4-(2,5-dimethylphenyl)piperazine]
- Ki: 658 nM
- inhibition at 10 µM: 93.8%

SMILES: Cc1cc(C)cc(N2CCN(Cc3ccccc3-c3ccccc3)CC2)c1 [Compound 22, 1-(biphenyl-2-ylmethyl)-4-(3,5-dimethylphenyl)piperazine]
- Ki: 367 nM
- inhibition at 10 µM: 84%

SMILES: CC(C)c1ccccc1N1CCN(Cc2ccccc2-c2ccccc2)CC1 [Compound 23, 1-(biphenyl-2-ylmethyl)-4-(2-isopropylphenyl)piperazine]
- Ki: 274 nM
- inhibition at 10 µM: 87%

SMILES: c1ccc(-c2ccccc2CN2CCN(c3ccccc3-c3ccccc3)CC2)cc1 [Compound 24, 1-(biphenyl-2-ylmethyl)-4-(biphenyl-2-yl)piperazine]
- Ki: 256 nM
- inhibition at 10 µM: 93.8%

SMILES: FC(F)(F)c1cccc(N2CCN(Cc3ccccc3-c3ccccc3)CC2)c1 [Compound 25, 1-(biphenyl-2-ylmethyl)-4-(3-(trifluoromethyl)phenyl)piperazine]
- Ki: 64 nM
- inhibition at 10 µM: 95.9%

SMILES: Fc1cccc(N2CCN(Cc3cccc(-c4ccccc4)c3)CC2)c1 [Compound 36, 1-(biphenyl-3-ylmethyl)-4-(3-fluorophenyl)piperazine]
- Ki: 79 nM
- inhibition at 10 µM: 91.3%

SMILES: Clc1ccccc1N1CCN(Cc2cccc(-c3ccccc3)c2)CC1 [Compound 38, 1-(biphenyl-3-ylmethyl)-4-(2-chlorophenyl)piperazine]
- Ki: 66 nM
- inhibition at 10 µM: 88.3%

SMILES: Cc1cccc(N2CCN(Cc3cccc(-c4ccccc4)c3)CC2)c1 [Compound 47, 1-(biphenyl-3-ylmethyl)-4-(3-methylphenyl)piperazine]
- Ki: 15 nM
- inhibition at 10 µM: 95.4%
